Experimental data as given in article PMC5374710, “Discovery of the first dual GSK3β inhibitor/Nrf2 inducer. A new multitarget therapeutic strategy for Alzheimer’s disease” (Scientific Reports, 2017).
Where two headings read alike, the source gives them in different places.

Tests used:
HepG2 cells = assay: Hepatotoxicity in HepG2 cell line (MTT); settings: 24 h
Protocol: Thus, it is relevant to study the potential neurotoxicity and hepatotoxicity of the novel dual GSK3β inhibitors-Nrf2 inducers 5a–t.
(§2) Viability was measured as MTT reduction in presence of increasing concentrations of derivatives. Values are expressed as LD50 calculated from dose-response curves of four different concentrations.
HepG2 cells were cultured according to supplier indications in EMEM supplemented with 10 % heat-inactivated FBS, 100 µg/mL streptomycin and 100 units/mL penicillin. Cells were maintained at 37 °C in humidified atmosphere of 95 % air and 5 % CO2. For experimental procedures, cells were cultured in 96-well plates at density of 1x10^5 cells/well. Treatments were performed in 1% FBS medium unless other concentration was specified. Cells were used from 4 up to 13 passages.
(§3) Cells were cultured in 48-well (SH-SY5Y, 1x10^5 cells per well) or 96-well plates (HepG2, 1x10^5 cells per well) for 24 h. […] Control cells were incubated with the same concentration of DMSO (0.1 % final concentration) without any drug.

SH-SY5Y cells = assay: Cytotoxicity in SH-SY5Y neuroblastoma cell line (MTT); settings: 24 h
Protocol: as §2, §3

primary rat glial cells = assay: ROS production in LPS-stimulated primary glial cultures (H2DCFDA); assay type: cell-based; settings: Glial cell, 24 h pre-incubation, 18 h co-incubation with LPS, 3 h with fluorescent dye, read-out: IC50 ROS reduction
Source text: Therefore, we envisaged the study of compounds 5a–t as potential anti-inflammatory agents. We used primary rat glial cells treated with lipopolysaccharide (LPS) to induce the production of nitrites and ROS as a model of glial activation. Nitrite production is directly proportional to the expression of the iNOS, that is over-expressed when LPS activates glial cells. ROS production is proportional to NOX activation after stimulation with LPS. Results are summarized in Table 2 as IC50s of nitrite production reduction and ROS production reduction. We have included sulforaphane as control in all experiments (see the Supporting Information).
Besides the increase in nitrite production, it is well known that LPS stimulation of microglia also induces the activation of NOX, which induces superoxide free radical production. In fact, this mechanism is synergistic with the expression of iNOS and the production of nitrites. In this respect, there is a body of evidence showing that NOX activation is a major contributor to ROS oxidative stress and neuronal death in AD[57][58]. […] In general, potency to reduce ROS production increased from ortho to para and meta as observed above.
(§1) Primary glial cells were cultured in bottom transparent 96-well black plates following standard protocol. Cells were pre-incubated with the corresponding compound at the selected concentrations, for 24 hours, and therafter, co-incubated with the corresponding compound and LPS (1 μM) during 18 h more. Then, treatments were removed and cells were loaded with the fluorescent probe 2′,7′-dichlorodihydrofluorescein diacetate (H2DCFDA) (10 μM) for 45 minutes in serum free glial culture medium. All experiments included cells treated with culture medium alone (basal). Cells were washed twice with culture medium and fluorescence intensity was recorded in a Fluostar Optima multiwall pate reader (BMG Labtech, Offenburg, Germany) at 485/520 nm as excitation and emission wavelengths respectively, each hour, during 3 hours period. Data were normalized with respect to basal conditions that were considered as 100%.
as §1, with “µM)” for “μM)”, “2',7'-dichlorodihydrofluorescein” for “2′,7′-dichlorodihydrofluorescein”
Mixed glial cultures were obtained from cerebral cortex of 2-5 day-old Sprague-Dawley rats. After removal of blood vessels and meninges, the forebrains were dissociated in DMEM/F12 medium. After mechanical dissociation, cells were plated (3x10^5 cells/ml) in DMEM/F12 medium with 20% fetal bovine serum (FBS) and 1 % penicillin/streptomycin (10,000 units), at 37 °C and in a 5 % CO2-supplemented air atmosphere. After 5 days, medium was substituted by DMEM/F12 medium with 10 % FBS. Cells were cultured for 7-10 days before treatment.

Nrf2 = assay: Nrf2-dependent luciferase reporter assay in AREc32 cell line; assay type: cell-based; settings: for EC50: AREc32 cells, read-out: CD (concentration required to double the luciferase reporter activity)
Protocol: Thereafter, we tested the ability of the compounds to induce the Nrf2 transcription factor. We used an Nrf2-dependent luciferase reporter assay in the AREc32 cell line[45]. Cells were cultured for 24 h and then treated with increasing concentrations of compounds 5a–t (0.3, 3, 10 and 30 μM), including the known inducer sulforaphane, containing an isothiocyanate motive as positive control.
AREc32 cells were plated in 96-well white plates (2 × 10^4 cells/well). After 24 h, cells were incubated with increasing concentrations of each compound in duplicate for 24 h. AREc32 cells express constitutively the plasmid pGL-8xARE that implements 8 copies of the EpRE sequences followed by luciferase reporter gen. Therefore, Nrf2 induction is related to the activation of EpRE sequences, expressing luciferase at the same extent as EpRE sequences are activated. The Luciferase Assay System (Promega E1500), was used according to provider protocol and luminescence was quantified in an Orion II microplate luminometer (Berthold, Germany). Fold induction of luciferase activity was normalized to basal conditions. Data are expressed as CD values, expressing the concentration required to double the luciferase activity. CD values are calculated from dose-response curves generated from fold induction of control conditions vs. inducer concentration and fitted by non-linear regression and data interpolated to 2-fold induction concentration.
Breast cancer cells stably transfected to express luciferase after EpRE sequences MCF-7/AREc32 named AREc32, were kindly provided by Dr. C. Roland Wolf (University of Dundee, UK).^14 AREc32 cells were maintained in DMEM with high glucose-glutamax, supplemented with 10 % FBS, 1 % penicillin-streptomycin (10,000 units), and geneticin (0.8 mg/ml G418) at 37 °C and in a 5 % CO2- air atmosphere.^14
AREc32 cells are constitutively transfected with the pGL-8xARE luciferase reporter gene, inserted after EpRE sequences. Thus, Nrf2 translocation to the nucleus induces the activation of the EpRE sequences, expressing their target phase II antioxidant genes, and expressing luciferase at the same extent.^15 AREc32 cells were plated in 96-well white plates (2X10^4 cells/well). After 24 h, cells were incubated with increasing concentrations of each compound in duplicate for 24 h (dissolved in DMSO to give a final 0.1 % vol/vol concentration of vehicle). Each plate included non-treated cells as basal luciferase expression and tBHQ (10 µM) as positive control. TBHQ is a potent Nrf2 inducer used as control in the development of the AREc32 cells.^14 Transfected clones are selected using G418. AREc32 cells express constitutively the plasmid pGL-8xARE that implements 8 copies of the EpRE sequences followed by a luciferase reporter gene. Therefore, the induction of Nrf2 is proportional to the activation of EpRE sequences, expressing luciferase at the same extent as EpRE sequences are activated. Luciferase production is then assessed by a bioluminescence assay. The Luciferase Assay System (Promega E1500), was used according to the Promega protocol and luminescence was quantified in an Orion II microplate luminometer (Berthold, Germany). Relative Light Units (RLU) were recorded for the contents of each well. Fold induction of luciferase activity was calculated by dividing the RLU obtained for the tests wells for each treatment by the average RLU obtained for the basal conditions. Data are expressed as CD values, expressing the concentration required to double the basal luciferase activity, used to quantify the Nrf2 induction potency. CD values are calculated from dose-response curves generated from fold induction of control conditions vs. inducer concentration and fitted by non-linear regression and data interpolated to value the 2-fold induction concentration, using GraphPad Prism software (San Diego, CA, USA).

Row | SMILES | IC50 (primary rat glial cells) | EC50 (Nrf2; Arec32, 24 h) | EC50 (Nrf2; 24 h) | HepG2 LD50 (HepG2 cells) | SH-SY5Y LD50 (SH-SY5Y cells) | Luciferase activity increase alone versus in presence of Li (10 mM) (Nrf2; 3 μM to 30 μM, 24 h)
1 | Cc1ccccc1C1C(C#N)=C(N)Oc2[nH]nc(C)c21 (stereo not drawn) [Compound 5e, 6-Amino-3-methyl-4-(2-methylphenyl)-2,4-dihydropyrano[2,3-c]pyrazole-5-carbonitrile] | 60 ± 0.29 µM | > 30 µM |  | > 100 µM | > 100 µM | 
2 | Cc1ccc(C2C(C#N)=C(N)Oc3[nH]nc(C)c32)cc1 (stereo not drawn) [Compound 5g, 6-Amino-3-methyl-4-(4-methylphenyl)-2,4-dihydropyrano[2,3-c]pyrazole-5-carbonitrile] | 45.1 ± 5.33 µM | 25.4 ± 2.5 µM |  | > 100 µM | > 100 µM | 
3 | Cc1n[nH]c2c1C(c1ccccc1Br)C(C#N)=C(N)O2 (stereo not drawn) [Compound 5l, 6-Amino-4-(2-bromophenyl)-3-methyl-2,4-dihydropyrano[2,3-c]pyrazole-5-carbonitrile] | 38.6 ± 7.16 µM | > 30 µM |  | > 100 µM | > 100 µM | 
4 | COc1ccccc1C1C(C#N)=C(N)Oc2n[nH]c(C)c21 (stereo not drawn) [Compound 5b, 6-Amino-4-(2-methoxyphenyl)-3-methyl-2,4-dihydropyrano[2,3-c]pyrazole-5-carbonitrile] | > 60 µM | > 30 µM |  | > 100 µM | > 100 µM | 
5 | Cc1n[nH]c2c1C(c1cccs1)C(C#N)=C(N)O2 (stereo not drawn) [Compound 5r, 6-Amino-3-methyl-4-(thiophen-2-yl)-2,4-dihydropyrano[2,3-c]pyrazole-5-carbonitrile] | > 60 µM | 17.6 ± 8.4 µM |  | > 100 µM | > 100 µM | 
6 | Cc1[nH]nc2c1C(c1ccc([N+](=O)[O-])cc1)C(C#N)=C(N)O2 (stereo not drawn) [Compound 5p, 6-Amino-3-methyl-4-(4-nitrophenyl)-2,4-dihydropyrano[2,3-c]pyrazole-5-carbonitrile] | > 60 µM | 15 ± 4.3 µM |  | > 100 µM | > 100 µM | 
7 | Cc1n[nH]c2c1C(c1ccc(Cl)cc1)C(C#N)=C(N)O2 (stereo not drawn) [Compound 5k, 6-Amino-4-(4-chlorophenyl)-3-methyl-2,4-dihydropyrano[2,3-c]pyrazole-5-carbonitrile] | > 60 µM | 8.31 ± 1.5 µM |  | > 100 µM | > 100 µM | 
8 | Cc1[nH]nc2c1C(c1ccccc1)C(C#N)=C(N)O2 (stereo not drawn) [Compound 5a, 6-Amino-3-methyl-4-phenyl-2,4-dihydropyrano[2,3-c]pyrazole-5-carbonitrile] | > 60 µM | 20.5 ± 3.4 µM |  | > 100 µM | > 100 µM | 
9 | Cc1[nH]nc2c1C(c1ccc(Br)cc1)C(C#N)=C(N)O2 (stereo not drawn) [Compound 5m, 6-Amino-4-(4-bromophenyl)-3-methyl-2,4-dihydropyrano[2,3-c]pyrazole-5-carbonitrile] | 33.2 ± 7.36 µM | < 10 µM | 9.37 ± 1.4 µM | > 100 µM | > 100 µM | to the same extent and without statistically significant differences

Now from value to compound, other results behind:

Row | IC50 (primary rat glial cells) | EC50 (Nrf2; Arec32, 24 h) | EC50 (Nrf2; 24 h) | SMILES | HepG2 LD50 (HepG2 cells) | SH-SY5Y LD50 (SH-SY5Y cells) | Luciferase activity increase alone versus in presence of Li (10 mM) (Nrf2; 3 μM to 30 μM, 24 h)
10 | 32.6 ± 6.79 µM | 14.1 ± 2.1 µM |  | Cc1cccc(C2C(C#N)=C(N)Oc3n[nH]c(C)c32)c1 (stereo not drawn) [Compound 5f, 6-Amino-3-methyl-4-(3-methylphenyl)-2,4-dihydropyrano[2,3-c]pyrazole-5-carbonitrile] | > 100 µM | > 100 µM | 
11 | 18.1 ± 5.36 µM | 11.3 ± 1.3 µM |  | COc1cccc(C2C(C#N)=C(N)Oc3n[nH]c(C)c32)c1 (stereo not drawn) [Compound 5c, 6-Amino-4-(3-methoxyphenyl)-3-methyl-2,4-dihydropyrano[2,3-c]pyrazole-5-carbonitrile] | > 100 µM | > 100 µM | 
12 | 19.9 ± 4.89 µM | 11.3 ± 5.5 µM |  | Cc1[nH]nc2c1C(c1ccccc1[N+](=O)[O-])C(C#N)=C(N)O2 (stereo not drawn) [Compound 5n, 6-Amino-3-methyl-4-(2-nitrophenyl)-2,4-dihydropyrano[2,3-c]pyrazole-5-carbonitrile] | > 100 µM | > 100 µM | 
13 | 24 ± 2.58 µM | 5.38 ± 0.5 µM |  | Cc1[nH]nc2c1C(c1cccc(Cl)c1)C(C#N)=C(N)O2 (stereo not drawn) [Compound 5j, 6-Amino-4-(3-chlorophenyl)-3-methyl-2,4-dihydropyrano[2,3-c]pyrazole-5-carbonitrile] | > 100 µM | > 100 µM | 
14 | 15.2 ± 3.73 µM | 8.91 ± 2.2 µM |  | Cc1[nH]nc2c1C(c1cccnc1)C(C#N)=C(N)O2 (stereo not drawn) [Compound 5s, 6-Amino-3-methyl-4-(pyridin-3-yl)-2,4-dihydropyrano[2,3-c]pyrazole-5-carbonitrile] | > 100 µM | > 100 µM | 
15 | 30.8 ± 4.99 µM | 18.9 ± 2.9 µM |  | Cc1[nH]nc2c1C(c1cccc([N+](=O)[O-])c1)C(C#N)=C(N)O2 (stereo not drawn) [Compound 5o, 6-Amino-3-methyl-4-(3-nitrophenyl)-2,4-dihydropyrano[2,3-c]pyrazole-5-carbonitrile] | > 100 µM | > 100 µM | 
16 | 19.9 ± 4.89 µM | 25.3 ± 2.4 µM |  | COc1ccc(C2C(C#N)=C(N)Oc3n[nH]c(C)c32)cc1 (stereo not drawn) [Compound 5d, 6-Amino-4-(4-methoxyphenyl)-3-methyl-2,4-dihydropyrano[2,3-c]pyrazole-5-carbonitrile] | > 100 µM | > 100 µM | 
